Measured values from patent US8088918B2, “Noncardiotoxic pharmaceutical compounds” (Williamsburg Holdings LLC, priority 2004, dated 2012).

What was measured:
[1] = Stability testing of prodrugs in rat plasma (elevated esterase activity); format: in vitro ADME, Sprague-Dawley rat; conditions: 10 μM, ca. 37° C.
Method: (§1) Sprague-Dawley rat plasma was obtained by collection into sodium EDTA as the anticoagulant, and was stored at ca −20° C. prior to use. Prior to use, the plasma defrosted and was spun at ca. 3000 rpm for 5 minutes to remove any precipitate. The pH of the plasma was adjusted to pH 7.4 by careful addition of NaH2PO4 buffer.
(§2) Plasma stability was assessed by incubation of 10 μM of each compound prepared in Examples 1-5 with rat plasma, in duplicate, at ca. 37° C. with shaking. Each compound prepared in Examples 1-5 was also incubated at 10 μM in PBS as a control for compound heat stability. Aliquots were removed at 0, 0.5, 1 and 2 hours and stored at −20° C. until analysis.
(§3) For analysis, plasma samples were extracted in 1 part acetonitrile and isolation of the supernatant. Analysis of each compound prepared in Examples 1-5 in plasma extracts was conducted by an LC-MS method at each time interval and quantification was achieved by comparison of the response due to the sample to that of a three point standard curve. Appearance of the parent drug and the hydroxymetabolites were also monitored at each time interval. The % degradation following incubation at each time point was calculated by comparison of the parent concentration to that at 0 minutes.

[2] = Stability testing in simulated gastric fluids; conditions: 10 μM, saline pH approximately 1 plus pepsin
[3] = Metabolic stability, microsomal incubations with ketoconazole (CYP3A4 inhibitor); format: in vitro ADME; conditions: 10 μM, 0.5 mg/mL microsomal protein
Method: (§4) The metabolic stability of each compound prepared in Examples 1-5 was assessed in microsomal preparations obtained from BD Gentest (Woburn, Mass.).
(§5) The metabolic stability of each compound prepared in Examples 1-5 was assessed in duplicate by incubation of 10 μM compound with 0.5 mg/mL microsomal protein, 1 mM in 0.1 M phosphate buffer, pH 7.4 in the presence and absence of a CYP3A4 inhibitor (ketoconazole). The reaction mixture was pre-incubated, in the absence of the microsomes, at ca. 37° C. for 5 minutes, followed by initiation of the incubation by the addition of microsomal protein and maintained at ca. 37° C. for a further 0, 30 and 60 minutes. After the appropriate incubation time, the mixtures were quenched by the addition of one volume of acetonitrile and the supernatant was isolated by centrifugation. Positive control incubations (7-ethoxycoumarin) were performed in the same manner as the compounds from Examples 1-5 and quenched after 0 and 30 minutes. In addition, negative control incubations were performed for 60 minutes in the absence of NADPH to assess chemical stability.
(§6) Analysis of supernatants from each time interval was conducted for each compound prepared in Examples 1-5 by LC-MS analysis. Quantification of the disappearance on the parent drug was achieved by comparison of the sample response to that of a suitable standard curve constructed in 0.1 M phosphate buffer, pH 7.4. The standard curve ranged between ≦1% up to ≧100% of the dosing concentration.
(§7) The % turnover following 60 minutes of incubation was calculated by comparison of the parent concentration to that at 0 minutes. The % degradation was calculated in the same manner from the negative control incubations. Appearance of the parent drug and the hydroxymetabolites were also monitored at each time interval.

[4] = Stability testing of prodrugs in human plasma; format: in vitro ADME; conditions: 10 μM, ca. 37° C.
Method: as §1, with “Pooled human” for “Sprague-Dawley rat”, “obtained from Bioreclamation (East Meadow, N.Y.)” for “obtained”
as §2, with “human” for “rat”
as §3, with “drug” for “drug and”

CYP2D6 = CYP2D6 (Homo sapiens, UniProt P10635); assay: Metabolic stability in the presence of CYP2D6 isozyme; format: in vitro ADME; design: purchased BD Gentest (Woburn, Mass.); conditions: 10 μm compound
Method: (§8) The metabolic stability of each compound prepared in Examples 1-5 was assessed in the presence of CYP2D6 and CYP3A4 obtained from BD Gentest (Woburn, Mass.).
(§9) The metabolic stability of each compound prepared in Examples 1-5 was assessed in duplicate by incubation of 10 μm compound with recombinant human CYP2D6 and 3A4 using similar conditions to those in Example 9. Samples were removed for analysis at 0, 30 and 60 minutes and extracted with one volume of organic solvent. Appropriate controls were included. Quantification of the disappearance of the prodrug was conducted LC-MS. Appearance of metabolites was also monitored.

[5] = Metabolic stability, microsomal incubations without inhibitor; format: in vitro ADME; conditions: 10 μM, 0.5 mg/mL microsomal protein
Method: as §4, §5, §6, §7

[6] = Stability testing in simulated intestinal fluids; conditions: 10 μM
recombinant human CYP3A4 = target: T1, recombinant human CYP3A4 (Homo sapiens, UniProt P08684); assay: Metabolic stability in the presence of CYP3A4 isozyme; format: in vitro ADME; conditions: 10 μm compound
T1 construct: purchased BD Gentest (Woburn, Mass.)
Method: as §8, §9

[7] = parent drugs; cited from earlier work
[8] = human plasma; cited from earlier work
[9] = phosphate pH 6, incubation time 0 min
[10] = phosphate pH 6, incubation time 30 min
[11] = phosphate pH 6, incubation time 60 min
[12] = phosphate pH 6, incubation time 120 min

Sequence of CYP2D6 (P10635 whole entry): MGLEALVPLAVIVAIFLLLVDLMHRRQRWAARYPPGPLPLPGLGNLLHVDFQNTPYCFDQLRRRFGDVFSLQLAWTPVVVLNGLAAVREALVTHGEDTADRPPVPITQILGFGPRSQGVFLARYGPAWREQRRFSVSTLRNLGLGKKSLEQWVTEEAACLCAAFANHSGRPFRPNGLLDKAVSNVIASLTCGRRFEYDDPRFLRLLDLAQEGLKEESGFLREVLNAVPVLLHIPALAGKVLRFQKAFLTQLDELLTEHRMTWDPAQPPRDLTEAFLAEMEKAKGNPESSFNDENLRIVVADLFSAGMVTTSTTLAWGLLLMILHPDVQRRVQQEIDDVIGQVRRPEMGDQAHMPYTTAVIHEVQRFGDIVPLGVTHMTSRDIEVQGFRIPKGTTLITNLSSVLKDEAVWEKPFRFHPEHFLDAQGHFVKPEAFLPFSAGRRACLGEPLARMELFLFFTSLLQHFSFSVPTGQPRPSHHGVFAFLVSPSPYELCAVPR
T1 sequence (P08684 whole entry): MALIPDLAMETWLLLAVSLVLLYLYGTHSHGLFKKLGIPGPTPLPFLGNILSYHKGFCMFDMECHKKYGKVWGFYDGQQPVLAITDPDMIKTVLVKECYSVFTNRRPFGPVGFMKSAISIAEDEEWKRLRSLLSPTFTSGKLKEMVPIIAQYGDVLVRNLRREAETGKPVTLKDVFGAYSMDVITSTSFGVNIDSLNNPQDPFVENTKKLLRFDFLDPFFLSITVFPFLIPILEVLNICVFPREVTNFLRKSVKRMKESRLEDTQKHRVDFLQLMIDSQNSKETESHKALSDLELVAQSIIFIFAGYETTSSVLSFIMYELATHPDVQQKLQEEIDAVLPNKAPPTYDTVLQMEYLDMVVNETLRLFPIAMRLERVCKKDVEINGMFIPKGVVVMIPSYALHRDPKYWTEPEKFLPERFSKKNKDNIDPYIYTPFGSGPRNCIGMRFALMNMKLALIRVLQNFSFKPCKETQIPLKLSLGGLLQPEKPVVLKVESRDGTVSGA

Row | Loss of parent compound in rat plasma (%) ([1]; incubation time 0 min) | Loss of parent compound in rat plasma (%) ([1]; incubation time 30 min) | Loss of parent compound in rat plasma (%) ([1]; incubation time 60 min) | Loss of parent compound in rat plasma (%) ([1]; incubation time 120 min) | Loss of parent compound in simulated gastric fluid (%) ([2]; incubation time 0 min) | Loss of parent compound in simulated gastric fluid (%) ([2]; incubation time 30 min) | Loss of parent compound with ketoconazole (%) ([3]; incubation time 30 min) | Loss of parent compound with ketoconazole (%) ([3]; incubation time 60 min) | Loss of parent compound in human plasma (%) ([4]; incubation time 0 min) | Loss of parent compound in human plasma (%) ([4]; incubation time 30 min) | Loss of parent compound in human plasma (%) ([4]; incubation time 60 min) | Loss of parent compound in human plasma (%) ([4]; incubation time 120 min) | Loss of parent compound with CYP2D6 isozyme (%) (CYP2D6; incubation time 0 min) | Loss of parent compound with CYP2D6 isozyme (%) (CYP2D6; incubation time 30 min) | Loss of parent compound with no ketoconazole (%) ([5]; incubation time 30 min) | Loss of parent compound with no ketoconazole (%) ([5]; incubation time 60 min) | Loss of parent compound in simulated intestinal fluid (%) [6, 9] | Loss of parent compound in simulated intestinal fluid (%) [6, 10] | Loss of parent compound in simulated intestinal fluid (%) [6, 11] | Loss of parent compound in simulated intestinal fluid (%) [6, 12] | Compound | other results
1 | 0.00% | 8.81% | 23.43% | 45.85% | 0.00% | 13.93% | 27.65% | 62.37% | 0.00% | 5.47% | 15.80% | 26.22% | 0.00% | 73.91% | 70.94% | 87.25% | 0.00% | 16.75% | 22.88% | 35.18% | COC(=O)N(C)CCCN1c2ccccc2CCc2ccccc21 [RIC-5a, [3-(10,11-Dihydro-dibenzo[b,f]azepin-5-yl)-propyl]-methyl-carbamic acid methyl ester] | Loss of parent compound in simulated gastric fluid (%) ([2]; incubation time 60 min): 31.78%; Loss of parent compound in simulated gastric fluid (%) ([2]; incubation time 120 min): 81.43%; Loss of parent compound with CYP2D6 isozyme (%) (CYP2D6; incubation time 60 min): 83.13%; Loss of parent compound with CYP3A4 isozyme (%) (recombinant human CYP3A4; incubation time 0 min): 0.00%; Loss of parent compound with CYP3A4 isozyme (%) (recombinant human CYP3A4; incubation time 30 min): 91.32%; Loss of parent compound with CYP3A4 isozyme (%) (recombinant human CYP3A4; incubation time 60 min): 97.96%
2 | 0.00% | 7.17% | 8.34% | 23.42% | 0.00% | 58.72% | 31.69% | 50.21% | 0.00% | 7.15% | 6.85% | 21.06% | 0.00% | 19.21% | 64.76% | 82.29% | 0.00% | 6.73% | 13.57% | 25.61% | CCCOC(=O)N(C)CCCN1c2ccccc2CCc2ccccc21 [RIC-5b, [3-(10,11-Dihydro-dibenzo[b,f]azepin-5-yl)-propyl]-methyl-carbamic acid propyl ester] | Loss of parent compound in simulated gastric fluid (%) ([2]; incubation time 60 min): 26.67%; Loss of parent compound in simulated gastric fluid (%) ([2]; incubation time 120 min): 94.37%; Loss of parent compound with CYP2D6 isozyme (%) (CYP2D6; incubation time 60 min): 28.01%; Loss of parent compound with CYP3A4 isozyme (%) (recombinant human CYP3A4; incubation time 0 min): 0.00%; Loss of parent compound with CYP3A4 isozyme (%) (recombinant human CYP3A4; incubation time 30 min): 92.32%; Loss of parent compound with CYP3A4 isozyme (%) (recombinant human CYP3A4; incubation time 60 min): 95.20%
3 | 0.00% | −14.69% | −2.88% | 33.40% | 0.00% | 70.64% | 6.36% | 19.49% | 0.00% | 5.11% | −1.48% | 25.82% | 0.00% | 43.71% | 54.01% | 76.36% | 0.00% | 1.05% | 12.68% | 21.78% | CC(C)COC(=O)N(C)CCCN1c2ccccc2CCc2ccccc21 [RIC-5c, [3-(10,11-Dihydro-dibenzo[b,f]azepin-5-yl)-propyl]-methyl-carbamic acid isobutyl ester] | Loss of parent compound in simulated gastric fluid (%) ([2]; incubation time 60 min): 82.77%; Loss of parent compound in simulated gastric fluid (%) ([2]; incubation time 120 min): 98.11%; Loss of parent compound with CYP2D6 isozyme (%) (CYP2D6; incubation time 60 min): 70.07%; Loss of parent compound with CYP3A4 isozyme (%) (recombinant human CYP3A4; incubation time 0 min): 0.00%; Loss of parent compound with CYP3A4 isozyme (%) (recombinant human CYP3A4; incubation time 30 min): 72.07%; Loss of parent compound with CYP3A4 isozyme (%) (recombinant human CYP3A4; incubation time 60 min): 90.69%
4 | 0.00% | −8.16% | 41.70% | 73.48% | 0.00% | 13.84% | 15.18% | 55.88% | 0.00% | −32.74% | −1.44% | 49.54% | 0.00% | 18.68% | 59.12% | 74.17% | 0.00% | 7.73% | −8.72% | 4.23% | CCCCCCCCOC(=O)N(C)CCCN1c2ccccc2CCc2ccccc21 [RIC-5d, [3-(10,11-Dihydro-dibenzo[b,f]azepin-5-yl)-propyl]-methyl-carbamic acid octyl ester] | Loss of parent compound with CYP3A4 isozyme (%) (recombinant human CYP3A4; incubation time 0 min): 0.00%; Loss of parent compound with CYP3A4 isozyme (%) (recombinant human CYP3A4; incubation time 30 min): 33.66%; Loss of parent compound with CYP3A4 isozyme (%) (recombinant human CYP3A4; incubation time 60 min): 60.64%
5 | – | – | – | – | – | – | – | – | – | – | – | – | – | – | – | – | – | – | – | – | Fc1ccc([C@@H]2CCNC[C@H]2COc2ccc3c(c2)OCO3)cc1 [paroxetine] | pKa [7]: 9.90; AUC(0-24) [8]: 96.5 ng·h/mL; Cmax [8]: 8.60 ng/mL; Tmax [8]: 5 (3-5) hours
